Experimental data reported in US20100160349A1, “TRIAZOLOPYRIMIDINE DERIVATIVES AS GLYCOGEN SYNTHASE KINASE 3 INHIBITORS” (priority 2005, published 2010).
Structures can show the parent of a compound that is named as a salt.

Legend:
GSK3alpha = GSK3alpha (Homo sapiens, UniProt P49840); test: GSK3alpha assay (same way as the GSK3beta assay); type: biochemical; conditions: −log IC50 (M); reported as ranges; 0.25 ng/μl GSK3alpha, 1 μM ATP, room temperature, one hour; read-out: pIC50 (GSK3alpha) (converted)
Experimental: (§1) GSK3beta assays were performed at room temperature in a 100 μl reaction volume of 25 mM Tris (pH 7.4) containing 10 mM MgCl2.6H2O, 1 mM DTT, 0.1 mg/ml BSA, 5% glycerol and containing 5.7 ng/μl GSK3β, 5 μM biotinylated phosphorylated CREB peptide, 1 μM ATP, 0.85 μCi/ml ATP-P^33 and a suitable amount of a test compound of formula (I). After one hour, the reaction was terminated by adding 70 μl of Stop mix (0.1 mM ATP, 5 mg/ml streptavidin coated PVT SPA bead pH 11.0). The beads to which the phosphorylated CREB peptide is attached were allowed to settle overnight and the radioactivity of the beads was counted in a microtiterplate scintillation counter and compared with the results obtained in a control experiment (without the presence of a test compound) in order to determine the percentage of GSK3β inhibition. The IC50 value, i.e. the concentration (M) of the test compound at which 50% of GSK3β is inhibited, was calculated from the dose response curve obtained by performing the above-described GSK3β assay in the presence of different amounts of the test compound.
The GSK3alpha assay was performed in the same way as described above for the GSK3beta assay except for the concentration of GSK3alpha which is 0.25 ng/μl.

GSK3β = GSK3β (Homo sapiens, UniProt P49841); test: GSK3beta assay (SPA, biotinylated phosphorylated CREB peptide, ATP-P33); type: biochemical; conditions: −log IC50 (M); reported as ranges; 5.7 ng/μl GSK3β, 1 μM ATP, room temperature, one hour; read-out: pIC50 (GSK3beta) (converted)
Experimental: as §1

Chain of GSK3β (P49841 whole entry, species assumed): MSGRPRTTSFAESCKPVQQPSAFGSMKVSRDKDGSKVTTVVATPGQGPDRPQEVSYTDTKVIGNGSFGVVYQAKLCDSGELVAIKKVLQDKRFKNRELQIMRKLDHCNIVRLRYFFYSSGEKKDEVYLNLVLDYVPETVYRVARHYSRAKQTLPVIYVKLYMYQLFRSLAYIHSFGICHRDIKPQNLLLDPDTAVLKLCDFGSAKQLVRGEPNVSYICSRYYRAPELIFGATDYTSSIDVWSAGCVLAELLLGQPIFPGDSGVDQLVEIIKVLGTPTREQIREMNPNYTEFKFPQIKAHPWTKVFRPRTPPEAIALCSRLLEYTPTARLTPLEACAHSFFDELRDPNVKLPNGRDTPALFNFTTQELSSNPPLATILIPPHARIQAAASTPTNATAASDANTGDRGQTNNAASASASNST
Chain of GSK3alpha (P49840 whole entry, species assumed): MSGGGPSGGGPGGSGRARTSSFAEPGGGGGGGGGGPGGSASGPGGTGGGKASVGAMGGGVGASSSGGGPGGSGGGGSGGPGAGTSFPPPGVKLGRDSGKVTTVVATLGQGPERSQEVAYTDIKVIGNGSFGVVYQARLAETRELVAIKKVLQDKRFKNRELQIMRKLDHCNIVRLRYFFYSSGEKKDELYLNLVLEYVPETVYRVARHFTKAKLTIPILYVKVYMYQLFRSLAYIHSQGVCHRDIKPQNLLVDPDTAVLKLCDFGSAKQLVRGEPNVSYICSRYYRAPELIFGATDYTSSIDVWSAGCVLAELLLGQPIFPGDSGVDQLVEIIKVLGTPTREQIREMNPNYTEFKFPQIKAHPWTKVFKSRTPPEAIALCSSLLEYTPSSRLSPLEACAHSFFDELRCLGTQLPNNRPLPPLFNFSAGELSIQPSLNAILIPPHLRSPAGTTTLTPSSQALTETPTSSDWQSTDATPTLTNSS

Row | Compound | melting point [°C] | IC50 (GSK3alpha) [M] | IC50 (GSK3β) [M]
1 | NCc1cccc(-n2nnc3cnc(Nc4ccccc4)nc32)c1 (as salt: HCl) [Co. No. 9] | > 260 | – | –
2 | N#CCc1cccc(-n2nnc3cnc(Nc4ccccc4)nc32)c1 [Co. No. 1] | 218 to 222 | < 1e-08 | < 1e-08
3 | COCCOCc1cccc(-n2nnc3cnc(Nc4ccccc4)nc32)c1 [Co. No. 2] | 143 | < 1e-08 | < 1e-08
4 | COCCOc1cccc(-n2nnc3cnc(Nc4ccccc4)nc32)c1 [Co. No. 3] | 164 | < 1e-08 | 1e-08 to 1e-07
5 | c1ccc(Nc2ncc3nnn(-c4ccccc4)c3n2)cc1 [Co. No. 4] | 194 to 198 | 1e-08 to 1e-07 | 1e-08 to 1e-07
6 | CC(C)(C)OC(=O)NCc1cccc(-n2nnc3cnc(Nc4ccccc4)nc32)c1 [Co. No. 5] | 196 to 198 | < 1e-08 | < 1e-08
7 | O=C(NCc1cccc(-n2nnc3cnc(Nc4ccccc4)nc32)c1)C12CC3CC(CC(C3)C1)C2 [Co. No. 6] | – | > 1e-07 | > 1e-07
8 | CC(C)CC(=O)NCc1cccc(-n2nnc3cnc(Nc4ccccc4)nc32)c1 [Co. No. 7] | – | < 1e-08 | < 1e-08
9 | O=C(O)Cc1cccc(-n2nnc3cnc(Nc4ccccc4)nc32)c1 [Co. No. 8] | 241 | 1e-08 to 1e-07 | > 1e-07
10 | NCc1cccc(-n2nnc3cnc(Nc4ccccc4)nc32)c1 [Co. No. 9] | – | < 1e-08 | 1e-08 to 1e-07
11 | OCCc1cccc(-n2nnc3cnc(Nc4ccccc4)nc32)c1 [Co. No. 10] | – | < 1e-08 | < 1e-08
12 | COCc1cccc(-n2nnc3cnc(Nc4ccccc4)nc32)c1 [Co. No. 11] | – | < 1e-08 | < 1e-08
13 | CC(=O)NCc1cccc(-n2nnc3cnc(Nc4ccccc4)nc32)c1 [Co. No. 12] | – | < 1e-08 | ≤ 1e-08
14 | Fc1cccc(-n2nnc3cnc(Nc4ccccc4)nc32)c1 [Co. No. 13] | – | 1e-08 to 1e-07 | –
15 | O=C(NCc1cccc(-n2nnc3cnc(Nc4ccccc4)nc32)c1)C1CC1 [Co. No. 14] | – | > 1e-06 | –
16 | CCOC(=O)NCc1cccc(-n2nnc3cnc(Nc4ccccc4)nc32)c1 [Co. No. 15] | – | < 1e-08 | < 1e-08
17 | OCCc1ccc(-n2nnc3cnc(Nc4ccccc4)nc32)cc1 [Co. No. 16] | – | 1e-08 to 1e-07 | 1e-08 to 1e-07
18 | NC(=O)Cc1cccc(-n2nnc3cnc(Nc4ccccc4)nc32)c1 [Co. No. 17] | – | < 1e-08 | < 1e-08
